The source of these data is PMC4546552 (ACS chemical biology, 2015).

Read-outs that look alike come from different tables or passages of the source.

One series concerns the target T1, rat NAAA (r-NAAA) (Rattus norvegicus, UniProt Q5KTC7).
T1 sequence (Q5KTC7 131-362 limits assumed): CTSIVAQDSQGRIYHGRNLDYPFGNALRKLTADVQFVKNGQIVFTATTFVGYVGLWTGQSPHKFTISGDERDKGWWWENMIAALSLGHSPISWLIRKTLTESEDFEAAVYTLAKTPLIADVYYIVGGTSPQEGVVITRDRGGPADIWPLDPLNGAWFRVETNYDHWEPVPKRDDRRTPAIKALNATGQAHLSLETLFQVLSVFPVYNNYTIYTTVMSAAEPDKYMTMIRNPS
T1 sequence (Q5KTC7 34-130 limits assumed): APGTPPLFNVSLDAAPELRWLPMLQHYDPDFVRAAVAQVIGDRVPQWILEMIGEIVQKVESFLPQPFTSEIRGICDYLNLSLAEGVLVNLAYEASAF
To be noted: cited from earlier work.

The next series has as its target T2, human NAAA (h-NAAA) (Homo sapiens, UniProt Q02083).
T2 sequence (Q02083 29-359): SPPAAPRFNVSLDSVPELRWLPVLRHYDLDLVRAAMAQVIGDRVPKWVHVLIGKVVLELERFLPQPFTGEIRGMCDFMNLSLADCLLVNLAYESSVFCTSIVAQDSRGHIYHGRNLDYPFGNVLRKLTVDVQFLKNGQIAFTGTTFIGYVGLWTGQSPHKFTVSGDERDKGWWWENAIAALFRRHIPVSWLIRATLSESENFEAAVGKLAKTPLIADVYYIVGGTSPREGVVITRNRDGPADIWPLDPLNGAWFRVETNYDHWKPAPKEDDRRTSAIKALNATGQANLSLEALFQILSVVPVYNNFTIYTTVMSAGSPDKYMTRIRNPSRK
To be noted: read-out: IC50 for human NAAA (h-NAAA); cited from earlier work.

The conditions of series [1]: cited from earlier work.
The next series relates to rodent models. To be noted: cited from earlier work.
The nature of series [2]: Stability in rat liver microsomes. It counts as in vitro ADME. (In general: Microsomes from liver hold many membrane-bound enzymes, among them those of drug oxidation.)
A short description of series [3]: Stability in mouse liver microsomes. It counts as in vitro ADME.
For another series, the target named is T3, rat FAAH (Rattus norvegicus, UniProt P97612).
T3 sequence (P97612 1-579): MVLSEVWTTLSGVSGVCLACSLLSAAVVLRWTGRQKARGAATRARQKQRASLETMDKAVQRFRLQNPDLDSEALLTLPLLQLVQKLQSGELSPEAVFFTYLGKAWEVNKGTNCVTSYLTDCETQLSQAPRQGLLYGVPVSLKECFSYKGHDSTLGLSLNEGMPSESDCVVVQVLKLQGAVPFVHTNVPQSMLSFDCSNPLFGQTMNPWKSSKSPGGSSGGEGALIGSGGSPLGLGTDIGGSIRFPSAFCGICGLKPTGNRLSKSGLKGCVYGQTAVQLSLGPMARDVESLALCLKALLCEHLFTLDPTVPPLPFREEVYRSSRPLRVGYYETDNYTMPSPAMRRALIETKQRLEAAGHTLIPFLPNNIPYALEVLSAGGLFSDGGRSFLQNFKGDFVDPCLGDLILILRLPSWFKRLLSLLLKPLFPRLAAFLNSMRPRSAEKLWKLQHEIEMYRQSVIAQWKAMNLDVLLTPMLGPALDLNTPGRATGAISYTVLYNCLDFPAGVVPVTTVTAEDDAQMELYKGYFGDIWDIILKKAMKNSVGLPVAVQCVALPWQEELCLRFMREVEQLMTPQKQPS
Nature of the series: Rat FAAH inhibition. The series is classed as biochemical.

For series [4], the system named is panel of 28 biologically relevant targets comprising lipid-metabolizing and inflammation-related enzymes. Nature of the series: CEREP selectivity panel, enzymes. To be noted: 10 μM. The series is classed as biochemical.
For series [5], the system named is 79 commonly targeted ion channels, membrane transporters and receptors. Nature of the series: CEREP selectivity panel, channels, transporters, receptors. The series is classed as binding. As to conditions: 10 μM.
Series [6] in a line: Pharmacokinetic analyses in mice, intravenous. It counts as in vivo. As to conditions: mouse, plasma, 3 mg/kg.
A further series concerns the target T4, r-NAAA (Rattus norvegicus, UniProt Q5KTC7).
T4 sequence (Q5KTC7 131-362 limits assumed): T1 sequence (Q5KTC7 131-362 limits assumed)
T4 sequence (Q5KTC7 34-130 limits assumed): T1 sequence (Q5KTC7 34-130 limits assumed)
Briefly: NAAA acylation in r-NAAA-overexpressing HEK-293 cells. It counts as cell-based. To be noted: HEK-293 cells overexpressing r-NAAA, 10 μM, 1 h.

Series [7] has as its target T5, NAAA (Rattus norvegicus, UniProt Q5KTC7).
T5 sequence (Q5KTC7 131-362 limits assumed): T1 sequence (Q5KTC7 131-362 limits assumed)
T5 sequence (Q5KTC7 34-130 limits assumed): T1 sequence (Q5KTC7 34-130 limits assumed)
Nature of the series: In vivo NAAA acylation in rat lungs. To be noted: rats, intravenous, 10 mg kg^−1.

The target in series [8] is T6, NAAA (Mus musculus, UniProt Q9D7V9).
T6 sequence (Q9D7V9 34-362): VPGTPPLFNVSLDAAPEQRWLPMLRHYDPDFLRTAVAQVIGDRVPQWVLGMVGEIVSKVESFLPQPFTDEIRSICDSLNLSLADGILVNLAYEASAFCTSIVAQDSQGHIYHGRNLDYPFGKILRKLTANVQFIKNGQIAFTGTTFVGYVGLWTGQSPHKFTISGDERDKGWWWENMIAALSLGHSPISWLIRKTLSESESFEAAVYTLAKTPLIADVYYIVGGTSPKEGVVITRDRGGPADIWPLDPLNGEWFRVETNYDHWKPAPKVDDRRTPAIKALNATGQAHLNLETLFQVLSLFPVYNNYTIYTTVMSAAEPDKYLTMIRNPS
Briefly: Ex vivo mouse NAAA activity after dosing. The series is classed as in vivo. As to conditions: mice.

In another series the test system is PEA and OEA levels. Briefly: PEA and OEA levels in mouse lungs. The series is classed as in vivo. To be noted: 30 mg kg^−1 oral.
The test system of series [9] is carrageenan-induced inflammation. Nature of the series: Carrageenan-induced inflammation in mice. The series is classed as in vivo, mouse.
Series [10] deals with LPS-activated human macrophages. Nature of the series: LPS-activated human monocyte-derived macrophages. The series is classed as cell-based.

Broadly, the IC50 is the midpoint of a concentration-inhibition curve. On to `O=C(CCc1ccccc1)N[C@H]1COC1=O` [Compound 3, N-[(3S)-2-oxo-3-oxetanyl]-3-phenylpropanamide], for which the IC50 at rat NAAA (r-NAAA) (read-out: IC50 for rat NAAA (r-NAAA)) is roughly 420 nM.
For the compound `C[C@@H]1OC(=O)[C@@H]1NC(=O)OCCCCCc1ccccc1` [Compound 4], the IC50 was roughly 50 nM at rat NAAA (r-NAAA) (read-out: IC50 for r-NAAA) and roughly 7 nM at human NAAA (h-NAAA). For the same compound, in series [1], the t1/2 in plasma was less than 1 min. Further, the “analgesic properties in rodent models” value in the series with rodent models is listed as “marked analgesic properties”.
For orientation: half-life means the time needed for the level to fall by half in the phase considered. Higher therefore signals slow loss. As usually defined, the Cmax is the maximum level reached in the sampled fluid or tissue. The term Vd denotes the apparent volume that relates the amount in the body to the concentration in plasma or blood. A high value points to extensive tissue distribution. As a reminder, the clearance is the rate of elimination divided by the concentration. A high value points to efficient removal. Turning to `O=C(N[C@H]1CNC1=O)OCCCCC1CCCCC1` [Compound 6, 4-Cyclohexylbutyl-N-[(S)-2-oxoazetidin-3-yl]carbamate], the half-life in series [2] was less than 5 min. In addition, the half-life in series [3] is less than 5 min. The IC50 at rat FAAH is greater than 100000 nM. Further, the “interaction with panel of 28 enzymes” value in [4] is recorded as “did not interact”. In series [5], the “effect on 79 ion channels, membrane transporters and receptors” value was “no significant effect”. For the same compound, in series [6], the peak level (Cmax) was 1610 ng/mL, the Vd came to 3.1 L/kg, the clearance is 139 mL/min/kg and the half-life was roughly 15 min. In addition, the “covalent adduct with N-terminal cysteine (Cys131) of NAAA” value on r-NAAA is “covalent product”. Besides, the “formation of covalent NAAA adduct in lungs” value on NAAA [7] is reported as “rapid formation of covalent adduct”. Also, the “inhibition of NAAA activity in various organs” value on NAAA [8] (intraperitoneal 3–30 mg kg^−1, 2 h) is “substantial inhibition of NAAA activity”. The “inhibition of NAAA activity ex vivo” value at NAAA [8] (oral 30 mg kg^−1, 2 h) was “substantial inhibition of NAAA activity”. Besides, in the series on PEA and OEA levels (carrageenan-challenged mice), the “OEA levels in lungs” value is reported as “markedly increased” and the “PEA levels in lungs” value was “markedly increased”. Moreover, in the series with PEA and OEA levels (naïve mice), the “OEA levels in lungs” value is given as “no effect” and the “PEA levels in lungs” value is given as “no effect”. Moreover, in [9] (AM251 or AM630 1 mg kg^−1 i.p. 30 min before 6), the “anti-inflammatory effects under antagonism of CB1 or CB2 receptors” value was “did not prevent the anti-inflammatory effects”. For the same compound, in [9] (mice, 1–30 mg kg^−1, oral), the “carrageenan-induced TNF-α levels in pleural exudate” value is listed as “prevented both responses in a dose-dependent manner” and the “carrageenan-induced lung tissue myeloperoxidase (MPO) activity” value was “prevented both responses in a dose-dependent manner”. For the same compound, the “LPS-induced expression of iNOS” value in series [10] (CD68+ human macrophages, LPS 100 ng mL^−1, flow cytometry) is reported as “significant concentration-dependent inhibition”. In addition, the “LPS-induced release of TNF-α” value in series [10] (CD68+ human macrophages, LPS, enzyme-linked immunoassay) is given as “significant concentration-dependent inhibition”. Besides, the “LPS-induced TNF-α expression” value in series [10] (human macrophages, LPS, flow cytometry) is on record as “Concentration-dependent effects”.
For `O=C(N[C@@H]1CNC1=O)OCCCCC1CCCCC1` [Compound 7, 4-Cyclohexylbutyl-N-[(R)-2-oxoazetidin-3-yl]carbamate], the “covalent adduct with N-terminal cysteine (Cys131) of NAAA” value on r-NAAA is “only negligible amounts of the adduct”. Further, in series [9] (mice, 30 mg kg^−1, oral), the “carrageenan-induced TNF-α levels in pleural exudate” value was “no such effect” and the “carrageenan-induced lung tissue myeloperoxidase (MPO) activity” value is given as “no such effect”.
For `C[C@@H]1C[C@H]2[C@@H]3CCC4=CC(=O)C=C[C@]4(C)[C@@]3(F)[C@@H](O)C[C@]2(C)[C@@]1(O)C(=O)CO` [dexamethasone, reference compound], the “carrageenan-induced lung MPO activity, effect relative to maximal effect of 6” value in series [9] (mice, 0.5 mg kg^−1, intraperitoneal) is on record as “comparable”.
